From US11702404B2, “GLP-1R modulating compounds” (priority 2019, dated 2023)
Read-outs that look alike come from different tables or passages of the source.

How the values were obtained:
[1] = Microsomal stability, human liver microsomes (predicted hepatic clearance); conditions: predicted from in vitro microsomal stability data
GLP-1R = GLP-1R (Homo sapiens, UniProt P43220); assay: GLP-1R activation: cAMP increase in CHO cells stably expressing GLP-1R; format: cell-based
[2] = cAMP increase, CHO cells stably expressing GLP-1R, 10 point dose response, 30 minutes incubation, read-out: EC50

Sequence of GLP-1R (P43220 24-463): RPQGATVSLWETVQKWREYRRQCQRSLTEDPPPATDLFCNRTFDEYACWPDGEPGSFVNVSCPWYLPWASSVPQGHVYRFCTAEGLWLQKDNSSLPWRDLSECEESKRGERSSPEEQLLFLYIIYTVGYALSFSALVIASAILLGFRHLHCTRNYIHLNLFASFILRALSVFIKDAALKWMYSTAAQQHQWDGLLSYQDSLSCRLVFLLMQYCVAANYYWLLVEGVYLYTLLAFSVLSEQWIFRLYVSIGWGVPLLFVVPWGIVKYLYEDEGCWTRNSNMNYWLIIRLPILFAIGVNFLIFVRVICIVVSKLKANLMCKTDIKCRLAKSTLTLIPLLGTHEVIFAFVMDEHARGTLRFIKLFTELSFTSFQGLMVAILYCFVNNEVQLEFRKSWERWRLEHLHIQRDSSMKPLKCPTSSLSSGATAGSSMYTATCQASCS

| SMILES | Predicted Hepatic Clearance (Pred. Cl.) [1] | EC50 (GLP-1R; [2]) | EC50 (GLP-1R; read-out: EC50) | EC50 (GLP-1R; EC50 (nM)) |
| --- | --- | --- | --- | --- |
| COC(Cn1c(Cc2ccc(-c3cccc(OCc4ccc(C#N)cc4F)n3)cc2F)nc2ccc(C(=O)O)cc21)C(=O)O (single isomer, unassigned) [Example 332, 1-(2-carboxy-2-methoxyethyl)-2-(4-(6-((4-cyano-2-fluorobenzyl)oxy)pyridin-2-yl)-2-fluorobenzyl)-1H-benzo[d]imidazole-6-carboxylic acid] | <1.83 mL/min/kg | 120 nM |  |  |
| COC(Cn1c(Cc2ccc(-c3cccc(OCc4ccc(C#N)cc4F)n3)cc2F)nc2ccc(C(=O)O)cc21)C(=O)O (single isomer, unassigned) [Example 333, 1-(2-carboxy-2-methoxyethyl)-2-(4-(6-((4-cyano-2-fluorobenzyl)oxy)pyridin-2-yl)-2-fluorobenzyl)-1H-benzo[d]imidazole-6-carboxylic acid] | <1.83 mL/min/kg | 624 nM |  |  |
| COC(Cn1c(Cc2ccc(-c3cccc(OCc4ccc(C#N)cc4F)n3)cc2F)nc2ccc(C(=O)O)cc21)C(N)=O (single isomer, unassigned) [Example 334, 1-(3-amino-2-methoxy-3-oxopropyl)-2-(4-(6-((4-cyano-2-fluorobenzyl)oxy)pyridin-2-yl)-2-fluorobenzyl)-1H-benzo[d]imidazole-6-carboxylic acid] | 3.3 mL/min/kg | 7.11 nM |  |  |
| COCCNC(=O)C(Cn1c(Cc2ccc(-c3cccc(OCc4ccc(C#N)cc4F)n3)cc2F)nc2ccc(C(=O)O)cc21)OC (single isomer, unassigned) [Example 335, 2-(4-(6-((4-cyano-2-fluorobenzyl)oxy)pyridin-2-yl)-2-fluorobenzyl)-1-(2-methoxy-3-((2-methoxyethyl)amino)-3-oxopropyl)-1H-benzo[d]imidazole-6-carboxylic acid] | 4.83 mL/min/kg | 139 nM |  |  |
| CNC(=O)C(Cn1c(Cc2ccc(-c3cccc(OCc4ccc(C#N)cc4F)n3)cc2F)nc2ccc(C(=O)O)cc21)OC (single isomer, unassigned) [Example 336, 2-(4-(6-((4-cyano-2-fluorobenzyl)oxy)pyridin-2-yl)-2-fluorobenzyl)-1-(2-methoxy-3-(methylamino)-3-oxopropyl)-1H-benzo[d]imidazole-6-carboxylic acid] | 7 mL/min/kg | 4.9 nM |  |  |
| CNC(=O)C(Cn1c(Cc2ccc(-c3cccc(OCc4ccc(C#N)cc4F)n3)cc2F)nc2ccc(C(=O)O)cc21)OC (single isomer, unassigned) [Example 337, 2-(4-(6-((4-cyano-2-fluorobenzyl)oxy)pyridin-2-yl)-2-fluorobenzyl)-1-(2-methoxy-3-(methylamino)-3-oxopropyl)-1H-benzo[d]imidazole-6-carboxylic acid] | 4.83 mL/min/kg | 13.7 nM |  |  |
| COC(Cn1c(Cc2ccc(-c3cccc(OCc4ccc(C#N)cc4F)n3)cc2F)nc2ccc(C(=O)O)cc21)C(=O)Nc1nccs1 (single isomer, unassigned) [Example 338, 2-(4-(6-((4-cyano-2-fluorobenzyl)oxy)pyridin-2-yl)-2-fluorobenzyl)-1-(2-methoxy-3-oxo-3-(thiazol-2-ylamino)propyl)-1H-benzo[d]imidazole-6-carboxylic acid] | 13 mL/min/kg | 2510 nM |  |  |
| COC(CN)Cn1c(Cc2ccc(-c3cccc(OCc4ccc(C#N)cc4F)n3)cc2F)nc2ccc(C(=O)O)cc21 (single isomer, unassigned) [Example 339, 1-(3-amino-2-methoxypropyl)-2-(4-(6-((4-cyano-2-fluorobenzyl)oxy)pyridin-2-yl)-2-fluorobenzyl)-1H-benzo[d]imidazole-6-carboxylic acid] | <1.83 mL/min/kg | 566 nM |  |  |
| COC(CN)Cn1c(Cc2ccc(-c3cccc(OCc4ccc(C#N)cc4F)n3)cc2F)nc2ccc(C(=O)O)cc21 (single isomer, unassigned) [Example 340, 1-(3-amino-2-methoxypropyl)-2-(4-(6-((4-cyano-2-fluorobenzyl)oxy)pyridin-2-yl)-2-fluorobenzyl)-1H-benzo[d]imidazole-6-carboxylic acid] | <1.83 mL/min/kg | 44.1 nM |  |  |
| COC(CNC(C)=O)Cn1c(Cc2ccc(-c3cccc(OCc4ccc(C#N)cc4F)n3)cc2F)nc2ccc(C(=O)O)cc21 (single isomer, unassigned) [Example 341, 1-(3-acetamido-2-methoxypropyl)-2-(4-(6-((4-cyano-2-fluorobenzyl)oxy)pyridin-2-yl)-2-fluorobenzyl)-1H-benzo[d]imidazole-6-carboxylic acid] | 5.67 mL/min/kg | 19.7 nM |  |  |
| COC(CNC(C)=O)Cn1c(Cc2ccc(-c3cccc(OCc4ccc(C#N)cc4F)n3)cc2F)nc2ccc(C(=O)O)cc21 (single isomer, unassigned) [Example 342, 1-(3-acetamido-2-methoxypropyl)-2-(4-(6-((4-cyano-2-fluorobenzyl)oxy)pyridin-2-yl)-2-fluorobenzyl)-1H-benzo[d]imidazole-6-carboxylic acid] | 4 mL/min/kg | 3360 nM |  |  |
| COCCn1c(C(C)c2ccc(-c3cccc(OCc4ccc(C#N)cc4F)n3)cc2)nc2ccc(C(=O)O)cc21 (single isomer, unassigned) [Example 418, 2-(1-(4-(6-((4-cyano-2-fluorobenzyl)oxy)pyridin-2-yl)phenyl)ethyl)-1-(2-methoxyethyl)-1H-benzo[d]imidazole-6-carboxylic acid] | 4.83 mL/min/kg | 18.3 nM |  |  |
| CC(=O)N1CC[C@@H]1Cn1c(Cc2cc(F)c(-c3cccc(OCc4ccc(C#N)cc4F)n3)cc2F)nc2ccc(C(=O)O)cc21 (single isomer, unassigned) [Example 689] | 5.17 mL/min/kg |  | 0.56 nM |  |
| N#Cc1ccc(COc2cccc(-c3cc(F)c(Cc4nc5ccc(C(=O)O)cc5n4C[C@@H]4CCO4)cc3F)n2)c(F)c1 (single isomer, unassigned) [Example 757] | 4.33 mL/min/kg | 0.03 nM |  |  |
| CO[C@H]1COC[C@H]1n1c(Cc2cc(F)c(-c3cccc(OCc4ccc(C#N)cc4F)n3)cc2F)nc2ccc(C(=O)O)cc21 (single isomer, unassigned) [Example 890, 2-(4-(6-((4-cyano-2-fluorobenzyl)oxy)pyridin-2-yl)-2,5-difluorobenzyl)-1-(cis-4-methoxytetrahydrofuran-3-yl)-1H-benzo[d]imidazole-6-carboxylic acid] | 5.17 mL/min/kg | 0.49 nM |  |  |
| CO[C@H]1COC[C@H]1n1c(Cc2cc(F)c(-c3cccc(OCc4ccc(C#N)cc4F)n3)cc2F)nc2ccc(C(=O)O)cc21 (single isomer, unassigned) [Example 891, 2-(4-(6-((4-cyano-2-fluorobenzyl)oxy)pyridin-2-yl)-2,5-difluorobenzyl)-1-(cis-4-methoxytetrahydrofuran-3-yl)-1H-benzo[d]imidazole-6-carboxylic acid] | 6.67 mL/min/kg | 0.25 nM |  |  |
| CC1(C)CC(Cn2c(Cc3ccc(-c4cccc(OCc5ccc(C#N)cc5F)n4)cc3F)nc3ccc(C(=O)O)cc32)O1 (single isomer, unassigned) [Example 904, 2-(4-(6-((4-cyano-2-fluorobenzyl)oxy)pyridin-2-yl)-2-fluorobenzyl)-1-((4,4-dimethyloxetan-2-yl)methyl)-1H-benzo[d]imidazole-6-carboxylic acid] | 11.2 mL/min/kg | 311 nM |  |  |
| CC1(C)CC(Cn2c(Cc3ccc(-c4cccc(OCc5ccc(C#N)cc5F)n4)cc3F)nc3ccc(C(=O)O)cc32)O1 (single isomer, unassigned) [Example 905, 2-(4-(6-((4-cyano-2-fluorobenzyl)oxy)pyridin-2-yl)-2-fluorobenzyl)-1-((4,4-dimethyloxetan-2-yl)methyl)-1H-benzo[d]imidazole-6-carboxylic acid] | 4.33 mL/min/kg | 30.9 nM |  |  |
| COCCn1c(Cc2ccc(-c3cccc(OCc4ccc(C#N)cc4F)n3)cc2)nc2ccc(C(=O)O)cc21 [Example 1, 2-(4-(6-((4-Cyano-2-fluorobenzyl)oxy)pyridin-2-yl)benzyl)-1-(2-methoxyethyl)-1H-benzo[d]imidazole-6-carboxylic acid] | 3.3 mL/min/kg | 25.4 nM |  |  |
| COCCn1c(Cc2ccc(-c3cccc(OCc4ccc(C#N)cc4F)n3)cc2F)nc2ccc(C(=O)O)cc21 [Example 2, 2-(4-(6-((4-cyano-2-fluorobenzyl)oxy)pyridin-2-yl)-2-fluorobenzyl)-1-(2-methoxyethyl)-1H-benzo[d]imidazole-6-carboxylic acid] | 2.33 mL/min/kg | 2.3 nM |  |  |
| COCCn1c(Cc2ccc(-c3cccc(OCc4ccc(C#N)cc4F)n3)c(F)c2)nc2ccc(C(=O)O)cc21 [Example 3, 2-(4-(6-((4-cyano-2-fluorobenzyl)oxy)pyridin-2-yl)-3-fluorobenzyl)-1-(2-methoxyethyl)-1H-benzo[d]imidazole-6-carboxylic acid] | 3.83 mL/min/kg |  |  | 10.3 nM |
| COCCn1c(Cc2ccc(-c3cccc(OCc4ccc(C#N)cc4F)n3)s2)nc2ccc(C(=O)O)cc21 [Example 4, 2-((5-(6-((4-cyano-2-fluorobenzyl)oxy)pyridin-2-yl)thiophen-2-yl)methyl)-1-(2-methoxyethyl)-1H-benzo[d]imidazole-6-carboxylic acid] | 13.7 mL/min/kg | 1570 nM |  |  |
| COCCn1c(Cc2ccc(-c3cccc(OCc4ccc(C#N)cc4F)c3)cc2F)nc2ccc(C(=O)O)cc21 [Example 6, 2-((3′-((4-cyano-2-fluorobenzyl)oxy)-3-fluoro-[1,1′-biphenyl]-4-yl)methyl)-1-(2-methoxyethyl)-1H-benzo[d]imidazole-6-carboxylic acid] | 3.5 mL/min/kg | 56.1 nM |  |  |
